Data: article PMC7948495, “The flexible N-terminus of BchL autoinhibits activity through interaction with its [4Fe-4S] cluster and released upon ATP binding” (The Journal of Biological Chemistry, 2020)

What was measured:
BchL [1] = biological target: T1, BchL (Cereibacter sphaeroides, UniProt Q9RFD6); experiment: EPR of the [4Fe-4S] cluster; type: binding; conditions: 40 µM BchL, 3 mM ADP, 1.7 mM dithionite
T1 construct: full-length with N-terminal 6xHis tag and TEV site; recombinant, plasmid-expressed; anaerobically purified; homodimer bridged by one [4Fe-4S] cluster
T1 sequence (Q9RFD6 whole entry): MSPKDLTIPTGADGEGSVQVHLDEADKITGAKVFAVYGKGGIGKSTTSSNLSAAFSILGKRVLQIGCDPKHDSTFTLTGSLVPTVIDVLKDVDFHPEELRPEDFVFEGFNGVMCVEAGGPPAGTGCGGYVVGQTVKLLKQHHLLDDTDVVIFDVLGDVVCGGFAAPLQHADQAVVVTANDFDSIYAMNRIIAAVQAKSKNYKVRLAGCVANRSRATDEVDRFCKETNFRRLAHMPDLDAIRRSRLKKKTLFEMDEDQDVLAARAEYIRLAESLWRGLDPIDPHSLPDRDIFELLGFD

BchL [2] = biological target: T2, BchL (Cereibacter sphaeroides, UniProt Q9RFD6, S17A); experiment: hydrogen-deuterium exchange mass spectrometry; type: binding; conditions: 2 mM ATP, 10 mM MgCl2, pD 7.5, anaerobic
T2 construct: full-length with N-terminal 6xHis tag and TEV site; recombinant, plasmid-expressed; anaerobically purified; homodimer bridged by one [4Fe-4S] cluster
T2 sequence (Q9RFD6 whole entry S17A): as the sequence (Q9RFD6 whole entry) above, with S17A counted along it

BchL [3] = biological target: T3, BchL (Cereibacter sphaeroides, UniProt Q9RFD6, D180N/D182N); experiment: nitrocellulose filter binding; conditions: labelled compound (α32P-ATP tracer); 4 µM BchL, 1 mM ATP, 10 mM MgCl2, pH 7.5, 25 °C; stoichiometry, no affinity constant
T3 construct: full-length with N-terminal 6xHis tag and TEV site; recombinant, plasmid-expressed; anaerobically purified; homodimer bridged by one [4Fe-4S] cluster
T3 sequence (Q9RFD6 whole entry D180N/D182N): as the sequence (Q9RFD6 whole entry) above, with D180N, D182N counted along it

linked-BchL (L1-L2) [4] = biological target: T4, linked-BchL (L1-L2) (Cereibacter sphaeroides, UniProt Q9RFD6); experiment: nitrocellulose filter binding; conditions: labelled compound (α32P-ATP tracer); 4 µM BchL, 1 mM ATP, 10 mM MgCl2, pH 7.5, 25 °C; stoichiometry, no affinity constant
T4 construct: N-terminal 6xHis tag and TEV site
T4 sequence (Q9RFD6 whole entry): as the sequence (Q9RFD6 whole entry) above
Description: nitrocellulose filter binding on linked-BchL (L1-L2) | linked-BchL with unaltered ATP-binding sites ([…]) bind ATP to similar extents

linked-BchL (L1-L2) [5] = biological target: T5, linked-BchL (L1-L2) (Cereibacter sphaeroides, UniProt Q9RFD6, K44A); experiment: nitrocellulose filter binding; conditions: labelled compound (32P-ATP tracer); 1 mM ATP, 10 mM MgCl2, pH 7.5, 25 °C; one of two sites mutated
T5 construct: N-terminal 6xHis tag and TEV site
T5 sequence (Q9RFD6 whole entry K44A): as the sequence (Q9RFD6 whole entry) above, with K44A counted along it

BchL [6] = biological target: T1, BchL; experiment: nitrocellulose filter binding; conditions: labelled compound (α32P-ATP tracer); 4 µM BchL, 1 mM ATP, 10 mM MgCl2, pH 7.5, 25 °C; stoichiometry, no affinity constant

Nc1ncnc2c1ncn2[C@@H]1O[C@H](COP(=O)(O)OP(=O)(O)O)[C@@H](O)[C@H]1O [ADP]
EPR of the [4Fe-4S] cluster (BchL [1]): with ADP, the proportion of the FeS^A species was diminished by a factor of two

Nc1ncnc2c1ncn2[C@@H]1O[C@H](COP(=O)(O)OP(=O)(O)OP(=O)(O)O)[C@@H](O)[C@H]1O [ATP]
hydrogen-deuterium exchange mass spectrometry (BchL [2]): Both BchL and BchL^S17A show similar patterns of reduced deuteration upon binding to ATP | ATP bound per BchL dimer (BchL [3]): ~ 2 ATP per dimer | nitrocellulose filter binding (linked-BchL (L1-L2) [4]): linked-BchL with unaltered ATP-binding sites (L1L2) bind ATP to similar extents | nitrocellulose filter binding (linked-BchL (L1-L2) [5]): When only one of the two ATP binding sites is mutated (L1^KA-L2), partial ATP binding is observed | ATP bound per BchL dimer (BchL [6]): ~ 2 ATP per dimer
